Laboratory results reported in patent US20240279240A1, “HETEROCYCLIC DERIVATIVES AS JANUS KINASE INHIBITORS” (CHIESI FARMACEUTICI S.P.A., priority 2021, published 2024).

Key:
[1] = molecular target: JAK 2 (Homo sapiens, UniProt O60674); assay: Biochemical potency on JAK2, TR-FRET LANCE Ultra kinase assay (examples 1-99); conditions: ATP at Km (0.7 μM), read-out: JAK2 inhibitory activity (pIC50 class) (converted)
Summary of the method: (§1)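 Each JAK isoform (human) was tested separately in a peptide-phosphorylation TR-FRET assay at ATP ≈ Km. Eleven compound concentrations, top 20 μM, 5-fold spacing. Values are IC50s from normalized-response curve fits.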

[2] = molecular target: TYK2 (Homo sapiens, UniProt P29597); assay: Biochemical potency on Tyk2, TR-FRET LANCE Ultra kinase assay (examples 1-99); conditions: ATP at Km (12 μM), read-out: Tyk2 inhibitory activity (pIC50 class) (converted)
Sequence of TYK2 (P29597 whole entry): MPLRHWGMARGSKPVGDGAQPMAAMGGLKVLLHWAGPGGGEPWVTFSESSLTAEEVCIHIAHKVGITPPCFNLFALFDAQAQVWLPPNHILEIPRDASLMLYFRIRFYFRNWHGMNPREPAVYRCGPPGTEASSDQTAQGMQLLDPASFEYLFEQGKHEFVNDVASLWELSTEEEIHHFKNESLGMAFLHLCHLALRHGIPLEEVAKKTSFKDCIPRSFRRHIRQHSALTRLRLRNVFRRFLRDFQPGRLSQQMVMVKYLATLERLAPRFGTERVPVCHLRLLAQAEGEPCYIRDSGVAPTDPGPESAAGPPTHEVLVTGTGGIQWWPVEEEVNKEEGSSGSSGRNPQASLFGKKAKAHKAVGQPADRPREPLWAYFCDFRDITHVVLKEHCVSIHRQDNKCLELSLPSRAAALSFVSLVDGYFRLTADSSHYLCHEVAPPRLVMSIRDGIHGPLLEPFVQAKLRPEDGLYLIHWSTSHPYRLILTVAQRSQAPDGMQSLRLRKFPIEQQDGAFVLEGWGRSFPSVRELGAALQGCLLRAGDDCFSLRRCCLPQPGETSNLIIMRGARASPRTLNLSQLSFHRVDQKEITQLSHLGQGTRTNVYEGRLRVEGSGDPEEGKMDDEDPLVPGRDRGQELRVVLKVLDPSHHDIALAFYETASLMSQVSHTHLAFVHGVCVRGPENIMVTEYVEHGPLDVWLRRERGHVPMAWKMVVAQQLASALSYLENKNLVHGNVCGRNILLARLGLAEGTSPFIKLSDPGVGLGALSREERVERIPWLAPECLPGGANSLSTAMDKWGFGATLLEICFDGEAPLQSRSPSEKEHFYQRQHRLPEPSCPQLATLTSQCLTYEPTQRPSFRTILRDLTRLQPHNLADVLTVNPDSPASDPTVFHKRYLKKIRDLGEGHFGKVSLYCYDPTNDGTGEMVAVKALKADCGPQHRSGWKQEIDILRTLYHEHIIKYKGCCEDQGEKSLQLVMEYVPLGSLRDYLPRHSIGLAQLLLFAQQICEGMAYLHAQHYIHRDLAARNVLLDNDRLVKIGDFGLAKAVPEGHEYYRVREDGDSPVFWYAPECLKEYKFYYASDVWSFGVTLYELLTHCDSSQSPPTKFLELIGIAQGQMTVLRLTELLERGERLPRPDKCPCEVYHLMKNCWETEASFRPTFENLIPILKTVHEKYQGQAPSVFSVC
Summary of the method: as §1

[3] = molecular target: T1, JAK 3 (Homo sapiens, UniProt P52333); assay: Biochemical potency on JAK3, TR-FRET LANCE Ultra kinase assay (examples 1-99); conditions: ATP at Km (0.2 μM), read-out: JAK3 inhibitory activity (pIC50 class) (converted)
T1 sequence (P52333 1-1124): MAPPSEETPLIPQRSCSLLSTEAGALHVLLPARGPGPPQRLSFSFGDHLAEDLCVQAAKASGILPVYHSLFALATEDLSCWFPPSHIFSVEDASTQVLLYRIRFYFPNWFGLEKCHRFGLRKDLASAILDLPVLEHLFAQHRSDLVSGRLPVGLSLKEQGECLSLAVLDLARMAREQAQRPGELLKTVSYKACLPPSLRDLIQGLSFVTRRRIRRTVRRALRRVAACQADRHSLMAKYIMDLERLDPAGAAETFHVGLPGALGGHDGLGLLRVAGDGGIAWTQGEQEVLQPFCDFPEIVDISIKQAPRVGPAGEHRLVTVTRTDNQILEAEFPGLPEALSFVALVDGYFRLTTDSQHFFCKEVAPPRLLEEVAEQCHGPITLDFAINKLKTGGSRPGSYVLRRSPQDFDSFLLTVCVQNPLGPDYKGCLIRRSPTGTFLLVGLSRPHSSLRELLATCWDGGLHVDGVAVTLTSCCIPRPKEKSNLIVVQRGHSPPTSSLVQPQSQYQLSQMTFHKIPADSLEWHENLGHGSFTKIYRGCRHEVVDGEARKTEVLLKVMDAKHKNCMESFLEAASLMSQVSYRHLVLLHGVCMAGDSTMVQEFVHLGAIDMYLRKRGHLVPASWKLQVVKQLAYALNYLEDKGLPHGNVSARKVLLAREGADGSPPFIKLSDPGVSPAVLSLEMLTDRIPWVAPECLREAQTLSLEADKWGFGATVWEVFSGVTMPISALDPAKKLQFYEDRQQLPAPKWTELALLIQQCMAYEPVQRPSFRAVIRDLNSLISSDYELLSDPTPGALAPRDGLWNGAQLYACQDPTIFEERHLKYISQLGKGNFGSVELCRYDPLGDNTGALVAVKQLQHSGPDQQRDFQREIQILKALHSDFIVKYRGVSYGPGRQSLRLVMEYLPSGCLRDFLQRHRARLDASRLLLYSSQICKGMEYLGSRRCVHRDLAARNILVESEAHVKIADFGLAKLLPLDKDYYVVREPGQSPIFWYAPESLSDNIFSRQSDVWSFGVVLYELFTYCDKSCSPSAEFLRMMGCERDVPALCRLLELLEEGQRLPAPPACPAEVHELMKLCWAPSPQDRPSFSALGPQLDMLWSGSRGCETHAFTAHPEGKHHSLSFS
Summary of the method: as §1

[4] = molecular target: JAK 1 (Homo sapiens, UniProt P23458); assay: Biochemical potency on JAK1, TR-FRET LANCE Ultra kinase assay (examples 1-99); conditions: ATP at Km (20 μM), read-out: JAK1 inhibitory activity (pIC50 class) (converted)
Sequence of JAK 1 (P23458 whole entry): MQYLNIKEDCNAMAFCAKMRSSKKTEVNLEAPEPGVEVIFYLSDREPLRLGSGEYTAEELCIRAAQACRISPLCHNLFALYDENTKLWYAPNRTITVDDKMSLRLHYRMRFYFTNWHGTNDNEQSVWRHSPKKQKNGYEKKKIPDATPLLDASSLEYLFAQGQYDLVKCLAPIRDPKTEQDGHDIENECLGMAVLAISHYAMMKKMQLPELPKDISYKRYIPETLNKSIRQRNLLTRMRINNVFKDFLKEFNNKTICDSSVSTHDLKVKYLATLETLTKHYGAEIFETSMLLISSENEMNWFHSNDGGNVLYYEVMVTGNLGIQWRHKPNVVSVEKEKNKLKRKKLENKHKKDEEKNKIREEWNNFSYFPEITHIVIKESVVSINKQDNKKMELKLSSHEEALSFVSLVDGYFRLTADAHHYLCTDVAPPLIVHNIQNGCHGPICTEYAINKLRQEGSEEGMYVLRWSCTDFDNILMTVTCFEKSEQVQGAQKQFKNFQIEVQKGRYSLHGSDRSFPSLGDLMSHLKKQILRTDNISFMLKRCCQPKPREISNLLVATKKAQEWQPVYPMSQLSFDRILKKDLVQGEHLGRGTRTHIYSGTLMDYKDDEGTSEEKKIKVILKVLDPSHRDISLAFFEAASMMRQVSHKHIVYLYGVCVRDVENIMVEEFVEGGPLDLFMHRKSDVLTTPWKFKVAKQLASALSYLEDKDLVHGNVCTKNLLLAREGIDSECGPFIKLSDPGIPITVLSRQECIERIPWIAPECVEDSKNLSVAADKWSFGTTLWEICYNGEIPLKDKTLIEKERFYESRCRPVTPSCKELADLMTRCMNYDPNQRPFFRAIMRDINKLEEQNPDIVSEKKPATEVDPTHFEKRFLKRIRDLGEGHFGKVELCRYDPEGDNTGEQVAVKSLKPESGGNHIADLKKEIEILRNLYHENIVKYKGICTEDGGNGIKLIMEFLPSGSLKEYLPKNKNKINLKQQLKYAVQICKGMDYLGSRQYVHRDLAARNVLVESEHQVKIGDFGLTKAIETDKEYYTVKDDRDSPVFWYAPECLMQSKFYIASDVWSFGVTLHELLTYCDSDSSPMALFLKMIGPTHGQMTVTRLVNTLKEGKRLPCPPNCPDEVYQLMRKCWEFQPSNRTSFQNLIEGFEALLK
Summary of the method: as §1

Sequence of JAK 2 (O60674 whole entry, canonical isoform): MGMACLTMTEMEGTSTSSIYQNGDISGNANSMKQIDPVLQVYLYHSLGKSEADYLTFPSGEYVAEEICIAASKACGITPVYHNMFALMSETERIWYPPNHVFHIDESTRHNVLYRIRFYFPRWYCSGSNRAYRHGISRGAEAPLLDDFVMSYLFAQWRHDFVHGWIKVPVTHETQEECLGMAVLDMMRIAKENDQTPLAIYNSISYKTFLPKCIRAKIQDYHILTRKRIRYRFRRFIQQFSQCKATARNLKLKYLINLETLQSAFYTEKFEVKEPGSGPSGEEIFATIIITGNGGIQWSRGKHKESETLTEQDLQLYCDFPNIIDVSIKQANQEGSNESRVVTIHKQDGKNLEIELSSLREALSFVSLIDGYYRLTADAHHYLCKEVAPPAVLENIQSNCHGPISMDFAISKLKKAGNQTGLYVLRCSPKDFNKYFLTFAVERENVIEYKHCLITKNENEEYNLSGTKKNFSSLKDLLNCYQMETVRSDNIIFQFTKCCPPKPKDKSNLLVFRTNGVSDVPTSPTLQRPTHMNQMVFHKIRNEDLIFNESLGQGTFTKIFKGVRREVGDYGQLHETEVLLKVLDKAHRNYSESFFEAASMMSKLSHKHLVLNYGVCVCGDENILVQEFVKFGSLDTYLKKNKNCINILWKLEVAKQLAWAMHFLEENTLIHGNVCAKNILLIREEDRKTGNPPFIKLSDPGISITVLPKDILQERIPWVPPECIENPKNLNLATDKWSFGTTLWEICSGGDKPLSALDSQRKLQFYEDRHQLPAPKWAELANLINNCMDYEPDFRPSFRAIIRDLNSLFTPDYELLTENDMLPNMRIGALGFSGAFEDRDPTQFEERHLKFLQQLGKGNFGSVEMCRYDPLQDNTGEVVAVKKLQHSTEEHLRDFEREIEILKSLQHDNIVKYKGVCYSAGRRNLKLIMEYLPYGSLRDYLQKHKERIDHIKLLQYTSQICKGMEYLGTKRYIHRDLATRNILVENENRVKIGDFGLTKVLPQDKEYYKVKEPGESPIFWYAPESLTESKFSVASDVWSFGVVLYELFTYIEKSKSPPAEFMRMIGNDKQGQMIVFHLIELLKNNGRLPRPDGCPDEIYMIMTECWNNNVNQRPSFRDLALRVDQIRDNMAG

An IC50 [1] of 5.01 to 50.1 nM, an IC50 [2] greater than 50.1 nM and an IC50 [3] of 5.01 to 50.1 nM were found for `CNC(=O)CSc1ccc(OC(F)F)c(-n2nc(C)c3cnc(-c4cnn5cccnc45)cc32)c1` [Example 67, 2-((4-(difluoromethoxy)-3-(3-methyl-6-(pyrazolo[1,5-a]pyrimidin-3-yl)-1H-pyrazolo[4,3-c]pyridin-1-yl)phenyl)thio)-N-methylacetamide] in this work. The IC50 [4] was 5.01 to 50.1 nM.
An IC50 [1] of no more than 5.01 nM, an IC50 [2] greater than 50.1 nM and an IC50 [3] of no more than 5.01 nM were found for `Cc1nn(-c2cc(SCC(N)=O)ccc2OC(F)F)c2cc(-c3cnn4cccnc34)ncc12` [Example 68, 2-((4-(difluoromethoxy)-3-(3-methyl-6-(pyrazolo[1,5-a]pyrimidin-3-yl)-1H-pyrazolo[4,3-c]pyridin-1-yl)phenyl)thio)acetamide] in this work. The IC50 [4] was 5.01 to 50.1 nM.
An IC50 [1] of 5.01 to 50.1 nM, an IC50 [2] greater than 50.1 nM and an IC50 [3] of 5.01 to 50.1 nM were found for `Cc1nn(-c2cc(SCC(=O)NCCO)ccc2OC(F)F)c2cc(-c3cnn4cccnc34)ncc12` [Example 69, 2-((4-(difluoromethoxy)-3-(3-methyl-6-(pyrazolo[1,5-a]pyrimidin-3-yl)-1H-pyrazolo[4,3-c]pyridin-1-yl)phenyl)thio)-N-(2-hydroxyethyl)acetamide] in this work. The IC50 [4] was 5.01 to 50.1 nM.
An IC50 [1] of no more than 5.01 nM, an IC50 [2] greater than 50.1 nM and an IC50 [3] of no more than 5.01 nM were found for `Cc1nn(-c2cc(S(=O)(=O)CC(N)=O)ccc2OC(F)F)c2cc(-c3cnn4cccnc34)ncc12` [Example 70, 2-((4-(difluoromethoxy)-3-(3-methyl-6-(pyrazolo[1,5-a]pyrimidin-3-yl)-1H-pyrazolo[4,3-c]pyridin-1-yl)phenyl)sulfonyl)acetamide] in this work. It also gave an IC50 [4] of 5.01 to 50.1 nM.
An IC50 [1] of 5.01 to 50.1 nM, an IC50 [2] greater than 50.1 nM and an IC50 [3] of 5.01 to 50.1 nM were found for `Cc1nn(-c2cc(SC3CC3)ccc2OC(F)F)c2cc(-c3cnn4cccnc34)ncc12` [Example 71, 1-(5-(cyclopropylthio)-2-(difluoromethoxy)phenyl)-3-methyl-6-(pyrazolo[1,5-a]pyrimidin-3-yl)-1H-pyrazolo[4,3-c]pyridine] in this work. The IC50 [4] was 5.01 to 50.1 nM.
An IC50 [1] of 5.01 to 50.1 nM, an IC50 [2] greater than 50.1 nM and an IC50 [3] of no more than 5.01 nM were found for `Cc1nn(-c2cc(SC3CCOCC3)ccc2OC(F)F)c2cc(-c3cnn4cccnc34)ncc12` [Example 72, 1-(2-(difluoromethoxy)-5-((tetrahydro-2H-pyran-4-yl)thio)phenyl)-3-methyl-6-(pyrazolo[1,5-a]pyrimidin-3-yl)-1H-pyrazolo[4,3-c]pyridine] in this work. For the same compound, the IC50 [4] was 5.01 to 50.1 nM.
An IC50 [1] of no more than 5.01 nM, an IC50 [2] of 5.01 to 50.1 nM and an IC50 [3] of no more than 5.01 nM were found for `Cc1nn(-c2cc(SC3COC3)ccc2OC(F)F)c2cc(-c3cnn4cccnc34)ncc12` [Example 73, 1-(2-(difluoromethoxy)-5-(oxetan-3-ylthio)phenyl)-3-methyl-6-(pyrazolo[1,5-a]pyrimidin-3-yl)-1H-pyrazolo[4,3-c]pyridine] in this work. It also gave an IC50 [4] of no more than 5.01 nM.
An IC50 [1] of 5.01 to 50.1 nM, an IC50 [2] greater than 50.1 nM and an IC50 [3] of 5.01 to 50.1 nM were found for `Cc1nn(-c2cc(SC3CCNCC3)ccc2OC(F)F)c2cc(-c3cnn4cccnc34)ncc12` [Example 74, 1-(2-(difluoromethoxy)-5-(piperidin-4-ylthio)phenyl)-3-methyl-6-(pyrazolo[1,5-a]pyrimidin-3-yl)-1H-pyrazolo[4,3-c]pyridine] in this work. It also gave an IC50 [4] greater than 50.1 nM.
An IC50 [1] of 5.01 to 50.1 nM, an IC50 [2] greater than 50.1 nM and an IC50 [3] of 5.01 to 50.1 nM were found for `CC(=O)N1CCC(Sc2ccc(OC(F)F)c(-n3nc(C)c4cnc(-c5cnn6cccnc56)cc43)c2)CC1` [Example 75, 1-(4-((4-(difluoromethoxy)-3-(3-methyl-6-(pyrazolo[1,5-a]pyrimidin-3-yl)-1H-pyrazolo[4,3-c]pyridin-1-yl)phenyl)thio)piperidin-1-yl)ethan-1-one] in this work. The IC50 [4] was 5.01 to 50.1 nM.
An IC50 [1] of 5.01 to 50.1 nM, an IC50 [2] greater than 50.1 nM and an IC50 [3] of 5.01 to 50.1 nM were found for `NC1CN(Cc2nn(-c3cc(Cl)ccc3OC(F)F)c3cc(-c4cnn5cccnc45)ncc23)C1` [Example 76, 1-((1-(5-chloro-2-(difluoromethoxy)phenyl)-6-(pyrazolo[1,5-a]pyrimidin-3-yl)-1H-pyrazolo[4,3-c]pyridin-3-yl)methyl)azetidin-3-amine] in this work. The IC50 [4] was 5.01 to 50.1 nM.
An IC50 [1] of 5.01 to 50.1 nM, an IC50 [2] of 5.01 to 50.1 nM and an IC50 [3] of 5.01 to 50.1 nM were found for `COc1ccc(Cl)cc1-n1nc(C(=O)N[C@H]2C[C@H](N)C2)c2cnc(-c3cnn4cccnc34)cc21` [Example 77, N-((1r,3r)-3-aminocyclobutyl)-1-(5-chloro-2-methoxyphenyl)-6-(pyrazolo[1,5-a]pyrimidin-3-yl)-1H-pyrazolo[4,3-c]pyridine-3-carboxamide] in this work. The IC50 [4] was 5.01 to 50.1 nM.
An IC50 [1] of 5.01 to 50.1 nM, an IC50 [2] greater than 50.1 nM and an IC50 [3] of 5.01 to 50.1 nM were found for `CNC(=O)CN(C)[C@H]1C[C@H](NC(=O)c2nn(-c3cc(Cl)ccc3OC)c3cc(-c4cnn5cccnc45)ncc23)C1` [Example 78, 1-(5-chloro-2-methoxyphenyl)-N-((1r,3r)-3-(methyl(2-(methylamino)-2-oxoethyl)amino)cyclobutyl)-6-(pyrazolo[1,5-a]pyrimidin-3-yl)-1H-pyrazolo[4,3-c]pyridine-3-carboxamide] in this work. For the same compound, the IC50 [4] was 5.01 to 50.1 nM.
An IC50 [1] of 5.01 to 50.1 nM, an IC50 [2] greater than 50.1 nM and an IC50 [3] of 5.01 to 50.1 nM were found for `COc1ccc(Cl)cc1-n1nc(C(=O)N[C@H]2C[C@H](N3CCOCC3)C2)c2cnc(-c3cnn4cccnc34)cc21` [Example 79, 1-(5-chloro-2-methoxyphenyl)-N-((1r,3r)-3-morpholinocyclobutyl)-6-(pyrazolo[1,5-a]pyrimidin-3-yl)-1H-pyrazolo[4,3-c]pyridine-3-carboxamide] in this work. It also gave an IC50 [4] of 5.01 to 50.1 nM.
An IC50 [1] of 5.01 to 50.1 nM, an IC50 [2] of 5.01 to 50.1 nM and an IC50 [3] of 5.01 to 50.1 nM were found for `COc1ccc(Cl)cc1-n1nc(C(=O)N[C@H]2C[C@H](N(C)C)C2)c2cnc(-c3cnn4cccnc34)cc21` [Example 80, 1-(5-chloro-2-methoxyphenyl)-N-((1r,3r)-3-(dimethylamino)cyclobutyl)-6-(pyrazolo[1,5-a]pyrimidin-3-yl)-1H-pyrazolo[4,3-c]pyridine-3-carboxamide] in this work. The IC50 [4] was 5.01 to 50.1 nM.
An IC50 [1] greater than 50.1 nM, an IC50 [2] greater than 50.1 nM and an IC50 [3] of 5.01 to 50.1 nM were found for `N[C@H]1C[C@@H](NC(=O)c2nn(-c3cc(Cl)ccc3OC(F)F)c3cc(-c4cnn5cccnc45)ncc23)C1` [Example 81, N-((1s,3s)-3-aminocyclobutyl)-1-(5-chloro-2-(difluoromethoxy)phenyl)-6-(pyrazolo[1,5-a]pyrimidin-3-yl)-1H-pyrazolo[4,3-c]pyridine-3-carboxamide] in this work. It also gave an IC50 [4] of 5.01 to 50.1 nM.
An IC50 [1] of 5.01 to 50.1 nM, an IC50 [2] greater than 50.1 nM and an IC50 [3] of 5.01 to 50.1 nM were found for `COc1ccc(S(C)(=O)=O)cc1-n1nc(C(=O)NCCN(C)C)c2cnc(-c3cnn4cccnc34)cc21` [Example 82, N-(2-(dimethylamino)ethyl)-1-(2-methoxy-5-(methylsulfonyl)phenyl)-6-(pyrazolo[1,5-a]pyrimidin-3-yl)-1H-pyrazolo[4,3-c]pyridine-3-carboxamide] in this work. The IC50 [4] was 5.01 to 50.1 nM.
An IC50 [1] of 5.01 to 50.1 nM, an IC50 [2] greater than 50.1 nM and an IC50 [3] of 5.01 to 50.1 nM were found for `COc1ccc(S(C)(=O)=O)cc1-n1nc(C(=O)NCCCN(C)C)c2cnc(-c3cnn4cccnc34)cc21` [Example 83, N-(3-(dimethylamino)propyl)-1-(2-methoxy-5-(methylsulfonyl)phenyl)-6-(pyrazolo[1,5-a]pyrimidin-3-yl)-1H-pyrazolo[4,3-c]pyridine-3-carboxamide] in this work. For the same compound, the IC50 [4] was 5.01 to 50.1 nM.
